Source: PubChem BioAssay (NCI)
“And” between values parts separate entries of the source, which are not always exact repeats. Equal values may be shown once.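 Assay format: 96-well plates, 48-hour exposure. Abbreviation: GI50, concentration required for 50% inhibition of growth. TGI: concentration producing complete growth inhibition.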

Test system: MOLT-4 leukemia
Assay: DTP human tumour cell line panel, 48 h

`N#Cc1c(-c2ccc(Cl)cc2Cl)nc2[nH][nH]c(=S)n2c1=O` was tested, and the TGI was greater than 100 µM.

Test system: A498 renal
Assay: DTP human tumour cell line panel, 48 h

Point of comparison: `C=C(Cl)C(Br)(CCl)CCC(Br)C(C)(C)Cl` (configuration not stated), TGI 35.3 µM. Against it:
- CCOC(=O)CN1C(=O)c2ccc(NC(=O)C(=O)O)cc2S1(=O)=O — higher, > 100 µM
- COc1ccc2cc(/C=N/NC(=O)Nc3ccccc3)ccc2c1 — higher, > 100 µM
- COC(=O)C(Cc1c[nH]c2ccccc12)NP(=O)(O)OCC1OC(n2cc(I)c(=O)[nH]c2=O)CC1O (configuration not stated) — higher, > 100 µM
- O=c1cnn(C/C=C/CO)c(=O)[nH]1 — higher, > 100 µM
- N#Cc1c(-c2ccc(Cl)cc2Cl)nc2[nH][nH]c(=S)n2c1=O — higher, > 100 µM

Test system: HT29 colon
Assay: DTP human tumour cell line panel, 48 h

Point of comparison: `C=C(Cl)C(Br)(CCl)CCC(Br)C(C)(C)Cl` (configuration not stated), TGI 4.23 µM. Against it:
- CCOC(=O)CN1C(=O)c2ccc(NC(=O)C(=O)O)cc2S1(=O)=O — higher, > 100 µM
- COc1ccc2cc(/C=N/NC(=O)Nc3ccccc3)ccc2c1 — higher, > 100 µM
- CC(O)C1(CNc2cc(Cl)nc(N)n2)CCC1 (configuration not stated) — higher, > 100 µM
- COC(=O)C(Cc1c[nH]c2ccccc12)NP(=O)(O)OCC1OC(n2cc(I)c(=O)[nH]c2=O)CC1O (configuration not stated) — higher, > 100 µM
- N#Cc1c(-c2ccc(Cl)cc2Cl)nc2[nH][nH]c(=S)n2c1=O — higher, > 100 µM

Test system: SK-OV-3 ovarian
Assay: DTP human tumour cell line panel, 48 h

Point of comparison: `C=C(Cl)C(Br)(CCl)CCC(Br)C(C)(C)Cl` (configuration not stated), TGI 27.1 µM. Against it:
- CCOC(=O)CN1C(=O)c2ccc(NC(=O)C(=O)O)cc2S1(=O)=O — higher, > 100 µM
- COc1ccc2cc(/C=N/NC(=O)Nc3ccccc3)ccc2c1 — higher, > 100 µM
- CC(O)C1(CNc2cc(Cl)nc(N)n2)CCC1 (configuration not stated) — higher, > 100 µM
- COC(=O)C(Cc1c[nH]c2ccccc12)NP(=O)(O)OCC1OC(n2cc(I)c(=O)[nH]c2=O)CC1O (configuration not stated) — higher, > 100 µM
- N#Cc1c(-c2ccc(Cl)cc2Cl)nc2[nH][nH]c(=S)n2c1=O — higher, > 100 µM

Test system: ACHN renal
Assay: DTP human tumour cell line panel, 48 h

Point of comparison: `C=C(Cl)C(Br)(CCl)CCC(Br)C(C)(C)Cl` (configuration not stated), TGI 9.71 µM. Against it:
- CCOC(=O)CN1C(=O)c2ccc(NC(=O)C(=O)O)cc2S1(=O)=O — higher, > 100 µM
- CC(O)C1(CNc2cc(Cl)nc(N)n2)CCC1 (configuration not stated) — higher, > 100 µM
- COC(=O)C(Cc1c[nH]c2ccccc12)NP(=O)(O)OCC1OC(n2cc(I)c(=O)[nH]c2=O)CC1O (configuration not stated) — higher, > 100 µM
- O=c1cnn(C/C=C/CO)c(=O)[nH]1 — higher, > 100 µM
- N#Cc1c(-c2ccc(Cl)cc2Cl)nc2[nH][nH]c(=S)n2c1=O — higher, > 100 µM

With `C=C(Cl)C(Br)(CCl)CCC(Br)C(C)(C)Cl` (configuration not stated) the GI50 was 3.94 µM.

Test system: NCI-H226 lung
Assay: DTP human tumour cell line panel, 48 h

Point of comparison: `C=C(Cl)C(Br)(CCl)CCC(Br)C(C)(C)Cl` (configuration not stated), TGI 5.22 µM. Against it:
- CCOC(=O)CN1C(=O)c2ccc(NC(=O)C(=O)O)cc2S1(=O)=O — higher, > 100 µM
- COc1ccc2cc(/C=N/NC(=O)Nc3ccccc3)ccc2c1 — higher, > 100 µM
- CC(O)C1(CNc2cc(Cl)nc(N)n2)CCC1 (configuration not stated) — higher, > 100 µM
- COC(=O)C(Cc1c[nH]c2ccccc12)NP(=O)(O)OCC1OC(n2cc(I)c(=O)[nH]c2=O)CC1O (configuration not stated) — higher, > 100 µM
- O=c1cnn(C/C=C/CO)c(=O)[nH]1 — higher, > 100 µM
- N#Cc1c(-c2ccc(Cl)cc2Cl)nc2[nH][nH]c(=S)n2c1=O — higher, > 100 µM

With `C=C(Cl)C(Br)(CCl)CCC(Br)C(C)(C)Cl` (configuration not stated) the GI50 was 1.91 µM.

Test system: SK-MEL-5 melanoma
Assay: DTP human tumour cell line panel, 48 h

`CCOC(=O)CN1C(=O)c2ccc(NC(=O)C(=O)O)cc2S1(=O)=O` and `COc1ccc2cc(/C=N/NC(=O)Nc3ccccc3)ccc2c1` cannot be ordered by TGI: greater than 100 µM for the first, greater than 100 µM for the second.

`CC(O)C1(CNc2cc(Cl)nc(N)n2)CCC1` (configuration not stated) and `N#Cc1c(-c2ccc(Cl)cc2Cl)nc2[nH][nH]c(=S)n2c1=O` cannot be ordered by TGI: greater than 100 µM for the first, greater than 100 µM for the second.

`COC(=O)C(Cc1c[nH]c2ccccc12)NP(=O)(O)OCC1OC(n2cc(I)c(=O)[nH]c2=O)CC1O` (configuration not stated) and `O=c1cnn(C/C=C/CO)c(=O)[nH]1` cannot be ordered by TGI: greater than 100 µM for the first, greater than 100 µM for the second.

`C=C(Cl)C(Br)(CCl)CCC(Br)C(C)(C)Cl` (configuration not stated) was tested, and the TGI was 6.96 µM and 6.1 µM.

Test system: HCC-2998 colon
Assay: DTP human tumour cell line panel, 48 h

Point of comparison: `C=C(Cl)C(Br)(CCl)CCC(Br)C(C)(C)Cl` (configuration not stated), TGI 30.5 µM. Against it:
- CCOC(=O)CN1C(=O)c2ccc(NC(=O)C(=O)O)cc2S1(=O)=O — higher, > 100 µM
- COc1ccc2cc(/C=N/NC(=O)Nc3ccccc3)ccc2c1 — higher, > 100 µM
- CC(O)C1(CNc2cc(Cl)nc(N)n2)CCC1 (configuration not stated) — higher, > 100 µM
- O=c1cnn(C/C=C/CO)c(=O)[nH]1 — higher, > 100 µM
- N#Cc1c(-c2ccc(Cl)cc2Cl)nc2[nH][nH]c(=S)n2c1=O — higher, > 100 µM

Test system: SF-268 CNS
Assay: DTP human tumour cell line panel, 48 h

`CCOC(=O)CN1C(=O)c2ccc(NC(=O)C(=O)O)cc2S1(=O)=O` and `COC(=O)C(Cc1c[nH]c2ccccc12)NP(=O)(O)OCC1OC(n2cc(I)c(=O)[nH]c2=O)CC1O` (configuration not stated) cannot be ordered by TGI: greater than 100 µM for the first, greater than 100 µM for the second.

`O=c1cnn(C/C=C/CO)c(=O)[nH]1` and `N#Cc1c(-c2ccc(Cl)cc2Cl)nc2[nH][nH]c(=S)n2c1=O` cannot be ordered by TGI: greater than 100 µM for the first, greater than 100 µM for the second.

With `C=C(Cl)C(Br)(CCl)CCC(Br)C(C)(C)Cl` (configuration not stated) the TGI was 8.32 µM and 8.82 µM.
